Experimental data published in ChEMBL document CHEMBL1129853, “Design and biological evaluation of a series of thiophene-based 3-hydroxy-3-methylglutaryl coenzyme a reductase inhibitors” (Bioorg Med Chem Lett, 1997).

What was measured:
[1] = molecular target: T1, 3-hydroxy-3-methylglutaryl-coenzyme A reductase (Rattus norvegicus) (UniProt P51639); assay: Tested in vitro for relative potency against HMG-CoA reductase in a microsomal preparation (relative to compactin =1); format: microsomes; details: Microsome
T1 sequence (whole entry): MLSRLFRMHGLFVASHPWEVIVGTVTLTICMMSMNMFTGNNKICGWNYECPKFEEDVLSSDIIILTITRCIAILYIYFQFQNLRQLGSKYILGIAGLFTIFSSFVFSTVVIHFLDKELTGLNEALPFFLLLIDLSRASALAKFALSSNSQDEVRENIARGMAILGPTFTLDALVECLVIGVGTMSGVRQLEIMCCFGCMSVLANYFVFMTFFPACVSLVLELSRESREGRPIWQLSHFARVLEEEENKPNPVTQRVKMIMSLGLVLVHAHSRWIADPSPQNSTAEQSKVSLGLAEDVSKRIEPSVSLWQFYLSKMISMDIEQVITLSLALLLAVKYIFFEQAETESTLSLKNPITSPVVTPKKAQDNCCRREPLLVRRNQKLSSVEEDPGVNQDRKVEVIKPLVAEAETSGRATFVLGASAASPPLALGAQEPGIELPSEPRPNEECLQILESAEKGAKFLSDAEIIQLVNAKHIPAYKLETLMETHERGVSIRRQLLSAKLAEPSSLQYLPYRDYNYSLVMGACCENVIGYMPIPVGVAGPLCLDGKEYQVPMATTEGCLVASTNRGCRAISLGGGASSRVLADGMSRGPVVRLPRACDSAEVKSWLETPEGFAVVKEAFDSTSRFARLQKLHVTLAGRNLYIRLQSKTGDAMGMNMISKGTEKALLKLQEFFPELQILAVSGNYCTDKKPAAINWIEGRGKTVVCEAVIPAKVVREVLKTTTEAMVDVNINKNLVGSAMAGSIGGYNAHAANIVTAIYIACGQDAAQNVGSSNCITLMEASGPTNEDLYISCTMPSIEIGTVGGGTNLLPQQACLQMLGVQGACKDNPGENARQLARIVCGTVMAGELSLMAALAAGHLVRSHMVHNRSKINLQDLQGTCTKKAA

[2] = molecular target: T2, 3-hydroxy-3-methylglutaryl-coenzyme A reductase (Rattus norvegicus, UniProt P51639); assay: Tested in vitro for the HMG-CoA reductase inhibitory activity in a microsomal preparation; format: microsomes, Microsome
T2 sequence (P51639 whole entry): T1 sequence (whole entry)

Rattus norvegicus [3] = assay: Tested in vivo for the concentration required to produce relative potency of the incorporation of [14C]acetate into cholesterol (relative to compactin=1); format: functional
Rattus norvegicus [4] = assay: Tested in vivo for the concentration required to produce 50% inhibition of the incorporation of [14C]acetate into cholesterol; format: functional

| SMILES | Relative potency [1] | IC50 [2] [nM] | Relative potency (Rattus norvegicus [3]) | ED50 (Rattus norvegicus [4]) [mg/kg] |
| --- | --- | --- | --- | --- |
| CCCCCCCCc1sc(C(C)C)c(/C=C/[C@@H](O)C[C@@H](O)CC(=O)O)c1-c1ccc(F)cc1 | < 0.1 | > 10000 | – | – |
| CCCCCCCCc1c(-c2ccccc2)sc(C(C)C)c1/C=C/[C@@H](O)C[C@@H](O)CC(=O)O | < 0.1 | > 10000 | – | – |
| CC[C@H](C)C(=O)O[C@H]1C[C@@H](C)C=C2C=C[C@H](C)[C@H](CC[C@@H]3C[C@@H](O)CC(=O)O3)[C@H]21 [LOVASTATIN] | 2.2 | 530 | 11 | 0.38 |
| CC(C)c1sc(C2CCCC2)c(-c2ccc(F)cc2)c1/C=C/[C@@H](O)C[C@@H](O)CC(=O)O | 2 | 570 | – | – |
| CC[C@H](C)C(=O)O[C@H]1CCC=C2C=C[C@H](C)[C@H](CC[C@@H]3C[C@@H](O)CC(=O)O3)[C@H]21 [MEVASTATIN] | 1 | 1150 | 1 | 4.02 |
| COc1ccc(-c2sc(C(C)C)c(/C=C/[C@@H](O)C[C@@H](O)CC(=O)[O-])c2-c2ccc(F)cc2)cc1.[Na+] | 183 | 6.3 | 27 | 0.15 |
| CC(C)=Cc1sc(C(C)C)c(/C=C/[C@@H](O)C[C@@H](O)CC(=O)[O-])c1-c1ccc(F)cc1.[Na+] | 77 | 15 | 37 | 0.11 |
| COCCOCc1sc(C(C)C)c(/C=C/[C@@H](O)C[C@@H](O)CC(=O)O)c1-c1ccc(F)cc1 | 5.6 | 206 | – | – |
| Cc1sc(C(C)C)c(/C=C/[C@@H](O)C[C@@H](O)CC(=O)[O-])c1-c1ccccc1.[Na+] | 12 | 94 | 21 | 0.19 |
| CC(C)c1sc(C(C)C)c(-c2ccc(F)cc2)c1/C=C/[C@@H](O)C[C@@H](O)CC(=O)[O-].[Na+] | 44 | 26 | 50 | 0.08 |
| CC(C)c1sc(-c2ccccc2)c(C2CCCCC2)c1/C=C/[C@@H](O)C[C@@H](O)CC(=O)[O-].[Na+] | 5.7 | 202 | 7.1 | 0.57 |

Now from value to compound, other results behind:

| Relative potency [1] | IC50 [2] [nM] | SMILES | Relative potency (Rattus norvegicus [3]) | ED50 (Rattus norvegicus [4]) [mg/kg] |
| --- | --- | --- | --- | --- |
| < 0.1 | > 10000 | CC(C)c1sc(-c2ccccc2)c(-c2ccc(-c3ccccc3)cc2)c1/C=C/[C@@H](O)C[C@@H](O)CC(=O)O | – | – |
| 119 | 9.7 | Cc1ccc(-c2sc(C(C)C)c(/C=C/[C@@H](O)C[C@@H](O)CC(=O)[O-])c2-c2ccc(F)cc2)cc1.[Na+] | 13 | 0.32 |
| 0.4 | 2980 | CC(C)c1sc(-c2ccccc2)c(-c2cccc(C(F)(F)F)c2)c1/C=C/[C@@H](O)C[C@@H](O)CC(=O)O | – | – |
| 0.5 | 2430 | COc1ccc(-c2c(-c3ccccc3)sc(C(C)C)c2/C=C/[C@@H](O)C[C@@H](O)CC(=O)O)cc1 | – | – |
| 23 | 49 | CC(C)c1sc(-c2ccccc2)c(-c2cccc(F)c2)c1/C=C/[C@@H](O)C[C@@H](O)CC(=O)O | – | – |
| 261 | 4.4 | CC(C)c1sc(-c2ccccc2)c(-c2ccc(F)cc2)c1/C=C/[C@@H](O)C[C@@H](O)CC(=O)[O-].[Na+] | 37 | 0.11 |
| 2.8 | 417 | CC(C)c1sc(-c2ccccc2)c(C2CCCC2)c1/C=C/[C@@H](O)C[C@@H](O)CC(=O)O | – | – |
| 1.2 | 1000 | CC(C)=Cc1c(-c2ccccc2)sc(C(C)C)c1/C=C/[C@@H](O)C[C@@H](O)CC(=O)O | – | – |
| 0.8 | 1420 | CC(C)c1sc(-c2ccccc2)c(-c2cccs2)c1/C=C/[C@@H](O)C[C@@H](O)CC(=O)O | – | – |
| 4.9 | 233 | CC(C)c1sc(-c2ccccc2)c(-c2ccccc2F)c1/C=C/[C@@H](O)C[C@@H](O)CC(=O)O | – | – |
| 4 | 325 | CC(C)c1sc(CO)c(-c2ccc(F)cc2)c1/C=C/[C@@H](O)C[C@@H](O)CC(=O)O | – | – |
| 55 | 21 | CC(C)c1sc(-c2ccc(Cl)cc2)c(-c2ccc(F)cc2)c1/C=C/[C@@H](O)C[C@@H](O)CC(=O)[O-].[Na+] | 6.3 | 0.64 |
| 44 | 26 | CC(C)c1sc(-c2ccccc2)c(-c2ccccc2)c1/C=C/[C@@H](O)C[C@@H](O)CC(=O)[O-].[Na+] | 24 | 0.17 |
